As usually defined, the pKd is the negative decadic logarithm of the Kd, by convention in mol/L. The Kd is a measure of binding affinity in units of concentration. As usually defined, the Ki is a dissociation constant, usually derived from enzyme kinetics or from competition with a known ligand.

For assay [1], the system named is H4 cells overexpressing full-length alpha-synuclein. Put plainly: Cellular model of aggregated alpha-synuclein-dependent toxicity, full-length alpha-synuclein H4 cells. The format is cell-based. The following applies: 10 μM compound, 100 μM FeCl3, 0.75% DMSO, 48 h; for inhibition at 10 µM: read-out: Change in fraction of condensed nuclei (rel. to DMSO control) [%].

The target of assay [2] is T1, aggregated alpha-synuclein (Homo sapiens, UniProt P37840).
T1 construct: made in house; host or cells: E. coli
Put plainly: Saturation binding assay, protocol 2a, alpha-synuclein fibrils. The following applies: for pKd: fibril-binding saturation assay, summary statement, read-out: KD values, alpha-synuclein fibrils; for Kd: saturation assay protocol 2a, [3H]-labeled compound, read-out: KD [nM] for aggregated alpha-synuclein; for Selectivity versus Abeta and tau46 fibrils: saturation binding to alpha-synuclein vs Abeta and tau46 fibrils. The procedure: Alpha-synuclein and tau46 were purified from E. coli according to established protocols (Nuscher B, et al., J. Biol. Chem., 2004; 279(21):21966-75), Aβ1-42 was obtained from rPeptide, Watkinsville, Ga., USA. Fibrils were prepared by aggregation of recombinant protein via constant agitation. In detail, 70 μM of alpha-synuclein mixed with 100 mM NaCl in 50 mM Tris, pH 7.0+0.02% NaN3 were incubated at 1,400 rpm, 37° C. for 96 h. 10 μM of tau46 were incubated with 0.03 mg/ml heparin in 50 mM Tris, pH=7.0 at 1,000 rpm, 37° C. for 72 h. Aβ1-42 was solved in 20 mM NaPi, pH=8.0+0.2 mM EDTA+0.02% NaN3 (Deeg A A, et al., Biochim. Biophys. Acta, 2015; 1850(9): 1884-90; Goedert M, et al. Nature, 1996; 383(6600): 550-3).
Sonicated αSYN (0.04 μM) or tau46 (0.4 μM) or Aβ1-42 (6 μM) fibrils diluted in PBS were incubated with decreasing concentrations of [^3H]-labeled compound (48 nM or 24 nM-[…]) in 50 mM Tris-base, 10% ethanol, 0.05% Tween20, pH 7.4. To determine non-specific binding, the respective unlabeled compound (400 nM) was added to a duplicate set of binding reactions.
Assay plates were incubated under agitation at 37° C. for 2 h, covered by plastic foil (Resealable tape, PerkinElmer, Waltham, Mass., USA). Prior to harvesting, a filter (Printed filtermat B, PerkinElmer, Waltham, Mass., USA) was incubated with 5 mg/mL polyethylenimine (PEI, Poly(ethyleneimine) solution, Sigma Aldrich Chemie GmbH, Taufkirchen, Germany) at 4° C. for 30 min. After incubation, bound and free ligands were separated by vacuum filtration using a harvester (Filtermate harvester, PerkinElmer, Waltham, Mass., USA). The filter was washed three times with buffer cooled to 4° C. and subsequently dried in the microwave oven for 2 min at medium power. Melt-on scintillator sheets (MeltiLex™ B/HS, PerkinElmer, Waltham, Mass., USA) were molten into the filter using a heating plate set to 120° C. After solidifying at room temperature, the filter was sealed in a plastic bag (Sample bag for MicroBeta®, PerkinElmer, Waltham, Mass., USA). Accumulation of tritium was counted in a liquid scintillation counter (Wallac MicroBeta® TriLux, 1450 LSC & Luminescence Counter, PerkinElmer, Waltham, Mass., USA) immediately. Radioactivity was plotted against the increasing tritium-labeled compound or cold compound concentrations. Data points were fitted using nonlinear regression analysis in GraphPad Prism (GraphPad Software, Inc., Version 7.03, La Jolla, Calif., USA).
The fibril-binding saturation assay provides KD values. This assay is performed with directly radioactively labeled compounds (e.g. ^3H labeling). The saturation binding assays were performed using as target structures fibrillar aggregates produced from recombinant human alpha-synuclein, Aβ1-42, and tau46, respectively.

Assay [3] deals with H4 cells overexpressing alpha-synuclein hemi-Venus fusion constructs (V1S+SV2). Put plainly: Cellular model of aggregated alpha-synuclein-dependent toxicity, V1S+SV2 H4 cells. The format is cell-based. Particulars: 10 μM compound, 100 μM FeCl3, 0.75% DMSO, 48 h; for inhibition at 10 µM: read-out: Change in fraction of condensed nuclei (rel. to DMSO control) [%].
Assay [4] concerns the target T2, alpha-synuclein (sonicated fibrils) (Homo sapiens, UniProt P37840).
T2 construct: made in house; host or cells: E. coli
Put plainly: Modified competition binding assay, protocol 3b, reference ligand [3H]-compound 2. The following applies: Table 5, reference ligand [3H]-compound 2 (1 nM). In short, it runs like this:
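Sonicated recombinant human αSYN fibrils (15 nM/well) incubated with 1 nM [3H]-compound 2 and serially diluted unlabeled competitor in 30 mM Tris-HCl, 10% ethanol, 0.05% Tween20, pH 7.4, 4.5 h at RT. Filtration readout; IC50 by non-linear regression, Ki calculated using KD 0.2 nM.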

Molecules are shown by their SMILES. pKd: −log10 of the molar value. Like-named read-outs stand apart in the source and are kept apart here. Some results are limits rather than exact numbers.

For the molecule `CNc1ccc(-c2cc(-c3ccnc(Br)c3)[nH]n2)cc1` [Compound 2, 4-[5-(2-bromopyridin-4-yl)-1H-pyrazol-3-yl]-N-methylaniline], in assay [1], the “Change in cell number (rel. to DMSO control) [%]” value (from here on “Change in cell number … [%]”) is listed as −44.2% and the inhibition at 10 µM was 79%. In addition, in assay [2], the negative logarithm of the Kd (pKd) was more than 8.00; the Kd was less than 1 nM; the “Selectivity versus Abeta and tau46 fibrils” value is given as “good to excellent selectivity”. In assay [3], the “Change in cell number … [%]” value is −25.8% and the inhibition at 10 µM came out at 49.4%.

Turning to `Fc1cc(-c2cc(-c3ccc4c(c3)OCO4)n[nH]2)ccn1` [Compound 12, 4-[3-(1,3-benzodioxol-5-yl)-1H-pyrazol-5-yl]-2-fluoropyridine], in assay [4], the inhibition constant (Ki) amounted to 3.4 nM. Besides, in assay [1], the “Change in cell number … [%]” value is recorded as −9.8% and the inhibition at 10 µM was -28.4%. In addition, in assay [2], the negative logarithm of the Kd (pKd) was more than 8.00 and the Kd amounted to 7 nM. Also, in assay [3], the “Change in cell number … [%]” value was −22.2% and the inhibition at 10 µM was -24.9%.

As to `CN(C)c1ccc(-c2cc(-c3ccnc(Br)c3)[nH]n2)cc1` [Compound 1, 4-[3-(4-dimethylamino-phenyl)-1H-pyrazol-5-yl]-2-bromopyridine], the inhibition constant Ki in assay [4] was determined as 0.1 nM. In addition, in assay [1], the “Change in cell number … [%]” value is on record as −27.3% and the inhibition at 10 µM came out at 65.4%. In assay [2], the pKd is more than 8.00; the Kd was less than 2 nM; the “Selectivity versus Abeta and tau46 fibrils” value is reported as “good to excellent selectivity”. Moreover, in assay [3], the “Change in cell number … [%]” value is given as −21.2% and the inhibition at 10 µM worked out at 11.7%.

These data come from patent US20230067910A1, “NOVEL COMPOUNDS FOR THE DIAGNOSIS, TREATMENT AND PREVENTION OF DISEASES ASSOCIATED WITH THE AGGREGATION OF ALPHA-SYNUCLEIN” (MODAG GMBH, priority 2019, published 2023).
